Like-named read-outs stand apart in the source and are kept apart here.
Key:
[1] = cited from earlier work; for t1/2: Obs
[2] = VBL PK study in wild‐type and Mdr1a/b(−/−) mice, observed serum and tissue data; settings: female, mouse, iv, 2 mg/kg; for half-life: in vivo, 2 mg/kg IV, Obs
Method: Mouse protocols were approved by the Institutional Animal Care and Use Committee at Colorado State University. Two strains of mice were used: FVB female mice and Mdr1a/b (−/−) (knock‐out, KO) female mice in a FVB background (Taconic Biosciences, Inc) for a total of 15 mice per strain with three mice per time point. […] Whole blood and tissues were harvested throughout a time range of 0.08 to 6 h. Whole blood was collected with heparinized needles and transferred to a microcentrifuge tube and was spun at 1200xg for 10 min at 4°C. The resulting serum and tissues were flash‐frozen in liquid nitrogen and stored at −80°C until ready for analysis.
Serum samples (200μl) were spiked with 50 ng (10 μl of 5 μg/ml solution) of vincristine as an internal standard. […] During vortex mixing, solid‐phase extraction cartridges were prepared by the addition of 400 μl methanol followed by 400 μl milli‐Q water. Loaded samples were then washed twice with 5% methanol. […] Samples were then evaporated to dryness using a Savant AES 1000 SpeedVac. Samples were then resuspended in 100 μl of diluent and transferred to autosampler vials with glass inserts for injection onto the HPLC system.
Positive ion electrospray ionization (ESI) mass spectra were obtained with a MDS Sciex 3200 Q‐TRAP triple quadrupole mass spectrometer (Applied Biosystems Inc) with a turbo ionspray source interfaced to a Shimadzu HPLC system and an HTC‐PAL autosampler (Leap Technologies). Samples were chromatographed with an Agilent ZORBAX Rx/SB‐C 8 (4.6 × 75 mm) column (Agilent Technologies) protected by a C 18 guard cartridge, 4.0 mm by 2.0 mm (Phenomenex). An LC gradient was employed with mobile phase A consisting of 10 mM ammonium acetate pH 4.0 and mobile phase B consisting of acetonitrile. Chromatographic resolution was obtained by holding mobile phase B steady at 50% from 0 to 0.01 min, increasing linearly from 50% to […] from 0.01 to 3.0 min, holding steady at 99% from 3.0 to 4.5 min, decreasing linearly from 99% to 50% from 4.5 to 5.0 min, followed by equilibration at 50% from 5.0 to 6.0 min. The LC flow rate was 0.75 ml/min and the sample injection volume was 10 μl. The analysis run time was 6.0 min.
Analyst v1.5.1 software (Applied Biosystems) was used for peak area integration.
Plasma and tissue concentrations were measured at time intervals between […] and 6 h post‐drug administration. The mouse PBPK model for Mdr1a/b (−/−) mice and wild‐type mice was developed using SimBiology, MATLAB with a focus on the following tissues: plasma, brain, bone marrow, liver, gut, and kidney. The primary drivers of vinca disposition including tubulin binding, ABCB1‐mediated transport, and elimination via metabolism, biliary clearance, and glomerular filtration created the foundation of the model. Metabolism values were either derived experimentally or sourced from literature, while tissue partitioning and Michaelis–Menten parameters for ABCB1 transport and biliary excretion were optimized using plasma and tissue PK data.

[3] = VBL PK study in dogs (clinical trial, serum); settings: dog, iv, 2.5 mg/m^2 IV bolus, observed; for AUC(0-t): 2.5 mg/m2, AUCt, dogs, 0 to 24 h; for half-life: 2.5 mg/m2, t1/2, dogs
[4] = concomitant prednisone/omeprazole/diphenhydramine (POD)

CC[C@]1(O)C[C@@H]2CN(CCc3c([nH]c4ccccc34)[C@@](C(=O)OC)(c3cc4c(cc3OC)N(C)[C@H]3[C@@](O)(C(=O)OC)[C@H](OC(C)=O)[C@]5(CC)C=CCN6CC[C@]43[C@@H]65)C2)C1 [VBL, Vinblastine]
t1/2 ([1]; Study 1: IV bolus 0.23 ± 0.08 mg/kg): 10.99 h | AUCt ([1]; Study 2: non‐small cell lung cancer, IV bolus 0.083 ± 0.009 mg/kg prior to Cisplatin infusion, n 8, Obs): 163 ± 62 h x nM | t1/2 ([1]; Study 3: IV bolus 0.2 mg/kg): 19.7 h | AUCt ([1]; Study 3: metastatic hypernephroma, IV bolus 0.2 mg/kg, n 1, Obs): 141 h x nM | AUC ([2]; FVB (wild-type), brain): 0.109 µM·h | AUC ([2]; FVB (wild-type), gut): 3.47 µM·h | half-life ([2]; FVB (wild-type), t1/2, wild‐type mice, brain): 3.94 h | half-life ([2]; FVB (wild-type), t1/2, wild‐type mice, gut): 1.27 h | half-life ([2]; FVB (wild-type), t1/2, wild‐type mice, kidney): 1.56 h | half-life ([2]; FVB (wild-type), t1/2, wild‐type mice, liver): 1.32 h | half-life ([2]; FVB (wild-type), t1/2, wild‐type mice, serum): 1.6 h | AUC ([2]; FVB (wild-type), kidney): 12.6 µM·h | AUC ([2]; FVB (wild-type), liver): 4.21 µM·h | AUC ([2]; FVB (wild-type), serum): 0.181 µM·h | AUC ([2]; FVB, bone marrow): 2.98 µM·h | AUC ([2]; Mdr1a/b (−/−) knock-out in FVB background, bone marrow): 2.71 µM·h | half-life ([2]; Mdr1a/b (−/−) knock-out in FVB background, t1/2, Mdr1a/b (−/−) mice, bone marrow): 5.83 h | half-life ([2]; Mdr1a/b (−/−) knock-out in FVB background, t1/2, Mdr1a/b (−/−) mice, liver): 1.8 h | AUC ([2]; Mdr1a/b (−/−) knock-out in FVB background, liver): 4.27 µM·h | AUC ([2]; Mdr1a/b (−/−) knock-out, FVB background, brain): 1.4 µM·h | AUC ([2]; Mdr1a/b (−/−) knock-out, FVB background, gut): 5.9 µM·h | half-life ([2]; Mdr1a/b (−/−) knock-out, FVB background, t1/2, Mdr1a/b (−/−) mice, gut): 3.86 h | half-life ([2]; Mdr1a/b (−/−) knock-out, FVB background, t1/2, Mdr1a/b (−/−) mice, kidney): 1.79 h | half-life ([2]; Mdr1a/b (−/−) knock-out, FVB background, t1/2, Mdr1a/b (−/−) mice, serum): 1.62 h | AUC ([2]; Mdr1a/b (−/−) knock-out, FVB background, serum): 0.215 µM·h | AUC(0-t) ([3]; concomitant prednisolone only): 0.186 µM·h | AUC(0-t) [3, 4]: 0.0477 µM·h | half-life ([3]; all patients regardless of concomitant treatment): 18.6 h | half-life ([3]; concomitant prednisolone only): 15.7 h | half-life [3, 4]: 5.15 h

Source: PMC9834611 (Pharmacology Research & Perspectives, 2023)
